Results on 2 compounds are retold here after patent US20040248816A1, “Treatment of migraine” (Boehringer Ingelheim International GmbH, priority 2003, published 2004).

Structures are written as SMILES.

This experiment relates to vasodilatation of the facial skin, induced by electrical ganglion stimulation. Nature of the experiment: Facial skin blood flow: vasodilatation of the facial skin induced by electrical trigeminal ganglion stimulation. Type of experiment: in vivo, rat. To be noted: anaesthetised male Wistar rats, i.v. 5 minutes before the second stimulation, BIBN 4096 Cl 0.03 mg/kg, sumatriptan 1.0 mg/kg, combination (0.03 mg + 1.0 mg)/kg; for % of trigeminus stimulation: first stimulation as control, saline control 82.7 ± 4.4. The procedure:
Measurement of the Facial Skin Blood Flow
The facial skin blood flow was measured by a modified method as described by Escott et al. (Escott, K. J., Beattie, D. T., Connor, H. E., Brain, S. D. (1995), Trigeminal ganglion stimulation increases facial skin blood flow in the rat: a major role for calcitonin gene-related peptide, Brain Research, 669(1), 93-99). Fasting male Wistar rats (strain CHbb:THOM, 280-320 g) were anaesthetised with sodium pentobarbitone (initially with 60 mg/kg i.p. and maintained throughout the experiment with an intraperitoneal infusion of 30 mg/kg/h through a 23 G needle using a solution of 10 mg/ml). Both sides of the buccal region of the facial skin were shaved and depilated with a commercially available depilatory cream (Pilca, Schwarzkopf & Henkel, 40551 Düsseldorf, Germany). The trachea was fitted with a cannula, and the animals were artificially ventilated (80 breaths per minute) with ambient air enriched with oxygen. The body temperature was maintained at 37° C. using an automatic heating pad. The left femoral artery and left femoral vein were fitted with cannulas for continuous measurement of the arterial blood pressure or the intravenous administration of test compounds. A neuromuscular blockade was obtained by intravenous administration of pancuronium bromide (1 mg/kg/0.5 ml, 5 minutes before each electrical stimulation). The heart rate was derived from the blood pressure signal. The blood pressure and heart rate were recorded continuously during the course of the experiment in order to assess the level of anaesthesia and monitor the cardiovascular activities of the pharmaceutical compositions used in this study.
The animals were placed in a stereotactic frame, and a longitudinal cut was made in the scalp. A small hole was drilled in the skull (on the left or right) and a bipolar electrode (Rhodes SNEX-100, obtained from David Kopf Instruments, Tujunga, 91042 Calif., USA) was lowered by means of a micromanipulator into the trigeminal ganglion (0.32 cm dorsally of the bregma, ±0.30 cm laterally of the centre line and 0.95 cm below the dural surface). The position of the electrodes in the trigeminal ganglia was checked visually at the end of each experiment after the removal of the brain. […] Microvascular changes in blood flow in the facial skin were measured by laser Doppler flow measurement using a Periflux Laser-Doppler system (PeriFLUX 4001, wavelength: 780 nm; time constant: 3 s; Perimed AB, Järfälla, S-17526, Sweden). […] Changes in blood flow were measured as flow in any desired units and expressed as the area under the flow curve (mm^2) according to Escott et al. (1995). […]

Where [1] appears, read: Rattus norvegicus, iv, versus saline solution control, read-out: % inhibition compared with the control value.

What is called inhibition is how much of the control response was suppressed. Regarding `NCCCC[C@H](NC(=O)[C@@H](Cc1cc(Br)c(O)c(Br)c1)NC(=O)N1CCC(N2Cc3ccccc3NC2=O)CC1)C(=O)N1CCN(c2ccncc2)CC1` [BIBN 4096 Cl, 1-[N^2-[3,5-dibromo-N-[[4-(3,4-dihydro-2(1H)-oxoquinazolin-3-yl)-1-piperidinyl]-carbonyl]-D-tyrosyl]-L-lysyl]-4-(4-pyridinyl)-piperazine], the “% of trigeminus stimulation” value was 60.3 ± 5.1%. The inhibition at 0.03 mg/kg under setting [1] amounted to 27.1%.
Consider `CNS(=O)(=O)Cc1ccc2[nH]cc(CCN(C)C)c2c1` [sumatriptan], for which the “% of trigeminus stimulation” value amounted to 68.8 ± 6.8%. Besides, the inhibition at 1 mg/kg under setting [1] was found to be 16.8%.
